# Experimental data: patent US20260256923A1, “NEW RECRUITMENT ELEMENT OF UBIQUITIN LIGASE AND USE THEREOF” (SHENZHEN LINGGENE BIOTECH CO., LTD., priority 2023, published 2026)
# Key:
# [1] = system: metastatic castration-resistant prostate cancer; conditions: patients carrying AR T878X and/or H875Y mutations; cited from earlier work
# STAT3 [2] = target: T1, STAT3 (Homo sapiens, UniProt P40763); assay: STAT3 protein degradation in HOS osteosarcoma cells, western blot; format: cell-based; parameters: endogenous in cells; conditions: 500 nM, 6 h
# Procedure: (§1) HOS osteosarcoma cells were incubated with 500 nM double-stranded transcription factor decoy oligonucleotide S3, AS1411, the first PROTAC product 1411-S3-1, the second PROTAC product 1411-S3-2, or AS1411+double-stranded transcription factor decoy oligonucleotide S3. After 6 h, cell samples were collected for protein extraction and subsequent western blot assay.
# STAT3 [3] = target: T1, STAT3; assay: STAT3 protein degradation in HeLa cells, western blot; format: cell-based; parameters: endogenous in cells; host or cells: HeLa; conditions: 500 nM, 6 h
# Procedure: HeLa cells were incubated with 500 nM said first PROTAC product 1411-S3-1 or second PROTAC product 1411-S3-2, and corresponding cell samples were collected at time gradients of 0 h, 2 h, 6 h, 12 h, 18 h, and 24 h for protein extraction and subsequent western blot assay.
# HeLa cells were incubated with the first PROTAC product 1411-S3-1 or the second PROTAC product 1411-S3-2 at concentrations of 0 nM, 100 nM, 200 nM, 500 nM, and 1000 nM. After 6 h, cell samples were collected for protein extraction and subsequent western blot assay. […] The half-maximal degradation concentrations (DC50) of the first PROTAC product 1411-S3-1 and the second PROTAC product 1411-S3-2 against STAT3 at the protein level were 262.5 nM and 136.3 nM, respectively, as shown in FIG. 19.
# as §1, with “HeLa” for “HOS osteosarcoma”
# HeLa cells were incubated with 500 nM said first PROTAC product 1411-S3-1 or second PROTAC product 1411-S3-2, and proteasome inhibitor MG132 was added. After 6 h, cell samples were collected for protein extraction and subsequent western blot assay. […]
# T1 sequence (P40763 whole entry): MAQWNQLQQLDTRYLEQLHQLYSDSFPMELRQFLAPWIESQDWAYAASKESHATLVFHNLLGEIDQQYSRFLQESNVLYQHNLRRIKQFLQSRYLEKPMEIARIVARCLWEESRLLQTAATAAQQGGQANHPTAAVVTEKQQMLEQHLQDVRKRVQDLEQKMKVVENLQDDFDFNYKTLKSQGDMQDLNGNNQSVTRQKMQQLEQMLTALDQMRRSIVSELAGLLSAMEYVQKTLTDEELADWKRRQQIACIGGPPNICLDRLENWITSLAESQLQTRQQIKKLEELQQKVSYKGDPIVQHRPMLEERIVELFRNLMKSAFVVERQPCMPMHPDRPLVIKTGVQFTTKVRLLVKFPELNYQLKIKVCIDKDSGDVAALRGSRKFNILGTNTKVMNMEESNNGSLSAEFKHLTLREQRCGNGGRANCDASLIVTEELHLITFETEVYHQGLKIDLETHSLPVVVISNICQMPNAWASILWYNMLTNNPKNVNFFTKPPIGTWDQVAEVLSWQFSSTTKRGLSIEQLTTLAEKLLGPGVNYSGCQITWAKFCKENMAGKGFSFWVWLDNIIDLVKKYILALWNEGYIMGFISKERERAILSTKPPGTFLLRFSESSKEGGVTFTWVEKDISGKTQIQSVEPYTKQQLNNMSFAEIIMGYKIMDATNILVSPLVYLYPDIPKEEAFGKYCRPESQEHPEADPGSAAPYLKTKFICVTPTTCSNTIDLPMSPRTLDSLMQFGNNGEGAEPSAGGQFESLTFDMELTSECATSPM
compound,measurement,setting,value
"N#Cc1ccc(O[C@H]2CC[C@H](NC(=O)c3ccc(N4CCC(CN5CCN(c6cc7c(cc6F)C(=O)N(C6CCC(=O)NC6=O)C7=O)CC5)CC4)nn3)CC2)cc1Cl (stereo partly drawn) [ARV-110, Bavdegalutamide]",antitumor activity and clinical benefit,[1],exhibits potent antitumor activity and clinical benefit
"S3: double-stranded transcription factor decoy oligonucleotide that specifically recognizes STAT3; strands SEQ ID NO: 5 and 6 (chain 1 CTTCTGGGAAA; chain 2 TTTCCCAGAAG; DNA, backbone and methylation of C not given here; double-stranded decoy)",protein level of STAT3,STAT3 [2],only the first PROTAC product 1411-S3-1 and the second PROTAC product 1411-S3-2 can reduce the protein level of transcription factor STAT3
same,protein level of STAT3,STAT3 [3],only the first PROTAC product 1411-S3-1 and the second PROTAC product 1411-S3-2 can reduce the protein level of transcription factor STAT3
